Data on one compound can be found in article PMC4067310, “From Pan-Reactive KV7 Channel Opener to Subtype Selective Opener/Inhibitor by Addition of a Methyl Group” (PLoS ONE, 2014).

In data set [1] the test system is human MDR1 (ABCB1, P-glycoprotein). Description: Bidirectional permeability in MDR1-MDCK cells. The conditions noted are these: dog, MDCK-MDR1, 150-min incubation at 37°C. The data set is classed as in vitro ADME. The procedure:
(§1) The bidirectional permeability (Papp) of SMB-1 was examined in an MDCK cell system expressing human MDR1 [ABCB1, P-glycoprotein (P-gp)] as described previously. Permeation of the test compound from apical (A) to basal (B) direction or B to A direction was determined in triplicate over a 150-min incubation at 37°C. The efflux ratio was calculated as the ratio between Papp (B to A) and Papp (A to B). Free fraction of SMB-1 was determined using a standard equilibrium dialysis methodology with freshly isolated rat brain homogenate or plasma. Equilibrium dialysis was performed by incubating at 37°C for 5 h in triplicates.

The subject of data set [2] is MDCK cell system expressing human MDR1 [ABCB1, P-glycoprotein (P-gp)]. Description: Bidirectional permeability in MDR1-MDCK cells. The conditions noted are these: judged from the efflux ratio in MDR1-MDCK cells. The data set is classed as in vitro ADME. The procedure:
as §1

In the next data set the target is T1, KV7.2-L299V (Homo sapiens, UniProt O43526, L299V).
T1 construct: expressed in transfected cells; host or cells: Xenopus laevis oocytes injected with cRNA (pGEM-HE vector)
Put plainly: Two-electrode voltage-clamp of mutant KV7.2-L299V in Xenopus laevis oocytes. The data set is classed as cell-based. The following applies: 10 µM SMB-1, +50 mV, n = 4; read-out: current amplitude, % of control. The procedure:
(§2) Point mutations were introduced using mutated oligonucleotide extension (PfuTurbo Polymerase, Stratagene, La Jolla, CA, USA) from a plasmid template harboring the cDNA of interest, digested with DpnI (Fermentas, St. Leon-Roth, Germany) and transformed into E.coli XL1 Blue cells. The construct was verified by complete DNA sequencing of the cDNA insert. cRNA was prepared from linearized human wild-type (WT) and mutant KV7 channels in the pGEM-HE vector using the T7 m-Message Machine kit (Ambion, Austin, TX, USA) according to the manufacturer's instructions.
(§3) Extraction of Xenopus laevis oocytes and injection of cRNA was performed as described previously. Oocytes were kept in Modified Barth's Saline (in mM: 88 NaCl, 1 KCl, 2.4 NaHCO3, 0.41 CaCl2, 0.82 MgSO4, 0.3 Ca(NO3)2, 15 HEPES, pH 7.4 supplemented with 100 U/mL penicillin and 100 µg/mL streptomycin) at 18°C, and currents were recorded after 2-7 days. […]
(§4) KV7 currents in Xenopus laevis oocytes were recorded using two-electrode voltage-clamp at room temperature in Ringer buffer (in mM: 115 NaCl, 2.5 KCl, 1.8 CaCl2, 0.1 MgCl2, 10 HEPES, pH 7.4) as described previously. Data was acquired using pCLAMP 10.2 software (Molecular Devices, CA, USA) and analyzed using pCLAMP 10.2 and GraphPad Prism 4.0 (GraphPad Software Inc., CA, USA). […]

The next data set concerns the target T2, KV7.4-L305V (Homo sapiens, UniProt P56696, L305V).
T2 construct: expressed in transfected cells; host or cells: Xenopus laevis oocytes injected with cRNA (pGEM-HE vector)
T2 sequence (P56696 1-695 L305V): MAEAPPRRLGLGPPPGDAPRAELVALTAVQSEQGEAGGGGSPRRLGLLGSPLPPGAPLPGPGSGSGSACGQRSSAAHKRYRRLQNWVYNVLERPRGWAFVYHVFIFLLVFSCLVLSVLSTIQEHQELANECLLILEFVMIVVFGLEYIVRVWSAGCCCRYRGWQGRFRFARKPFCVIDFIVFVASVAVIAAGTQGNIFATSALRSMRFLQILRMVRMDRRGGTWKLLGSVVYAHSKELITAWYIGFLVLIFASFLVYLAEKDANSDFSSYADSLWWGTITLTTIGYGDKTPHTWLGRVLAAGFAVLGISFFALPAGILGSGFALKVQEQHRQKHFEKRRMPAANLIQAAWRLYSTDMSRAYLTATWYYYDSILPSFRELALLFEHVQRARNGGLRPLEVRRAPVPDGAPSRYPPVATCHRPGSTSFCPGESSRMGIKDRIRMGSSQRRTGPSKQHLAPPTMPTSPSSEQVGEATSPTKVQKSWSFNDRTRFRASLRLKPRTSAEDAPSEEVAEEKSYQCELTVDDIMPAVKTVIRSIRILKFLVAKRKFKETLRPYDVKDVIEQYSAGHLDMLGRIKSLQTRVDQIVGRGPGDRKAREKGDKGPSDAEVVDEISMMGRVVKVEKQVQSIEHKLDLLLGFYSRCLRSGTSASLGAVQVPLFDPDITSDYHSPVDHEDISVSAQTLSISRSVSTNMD
Description: Two-electrode voltage-clamp of mutant KV7.4-L305V in Xenopus laevis oocytes. The following applies: 10 µM SMB-1, +50 mV, n = 6; read-out: current amplitude, % of control. The data set is classed as cell-based. The procedure: as §2, §3, §4
Background: In two-electrode clamp one electrode senses voltage and the other passes current.

The next data set deals with T3, KV7.2-L275V (Homo sapiens, UniProt O43526, L275V).
T3 construct: expressed in transfected cells; host or cells: Xenopus laevis oocytes injected with cRNA (pGEM-HE vector)
Put plainly: Two-electrode voltage-clamp of mutant KV7.2-L275V in Xenopus laevis oocytes. The data set is classed as cell-based. The following applies: 10 µM SMB-1, +50 mV, n = 4; read-out: current amplitude, % of control. On the procedure: as §2, §3, §4

The term Papp denotes a coefficient for how fast a substance crosses the barrier.

T3 sequence (O43526 whole entry L275V): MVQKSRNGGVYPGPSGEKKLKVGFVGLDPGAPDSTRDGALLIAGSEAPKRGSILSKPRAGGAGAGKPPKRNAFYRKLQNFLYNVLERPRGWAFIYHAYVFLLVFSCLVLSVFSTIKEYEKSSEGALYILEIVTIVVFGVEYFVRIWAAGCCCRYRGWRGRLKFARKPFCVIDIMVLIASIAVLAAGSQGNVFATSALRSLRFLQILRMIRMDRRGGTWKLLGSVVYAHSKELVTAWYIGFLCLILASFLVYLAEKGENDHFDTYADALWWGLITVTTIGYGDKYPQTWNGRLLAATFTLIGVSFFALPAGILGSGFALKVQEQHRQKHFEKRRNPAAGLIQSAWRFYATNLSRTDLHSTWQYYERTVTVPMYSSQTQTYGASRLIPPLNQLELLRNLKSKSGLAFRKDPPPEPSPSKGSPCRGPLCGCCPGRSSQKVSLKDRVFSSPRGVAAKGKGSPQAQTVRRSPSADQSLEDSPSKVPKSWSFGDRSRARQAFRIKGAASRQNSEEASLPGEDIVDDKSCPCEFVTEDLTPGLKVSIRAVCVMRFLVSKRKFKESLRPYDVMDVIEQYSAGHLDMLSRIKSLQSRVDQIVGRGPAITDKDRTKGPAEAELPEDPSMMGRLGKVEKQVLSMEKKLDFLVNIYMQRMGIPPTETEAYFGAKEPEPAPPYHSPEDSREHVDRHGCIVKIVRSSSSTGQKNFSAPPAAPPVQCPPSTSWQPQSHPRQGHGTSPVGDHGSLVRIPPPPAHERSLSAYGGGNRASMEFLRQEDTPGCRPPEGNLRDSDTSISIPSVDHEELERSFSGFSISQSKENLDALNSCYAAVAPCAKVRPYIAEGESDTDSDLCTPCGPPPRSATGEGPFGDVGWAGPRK
T1 sequence (O43526 whole entry L299V): as the sequence (O43526 whole entry L275V) above, with V275L, L299V counted along it

Turning to `C[C@@H](c1ccc2c(c1)N(CC1CC1)CCO2)N(C)C(=O)/C=C/c1ccccc1F` [SMB-1, (E)-N-[(S)-1-(4-Cyclopropylmethyl-3,4-dihydro-2H-1,4-benzoxazin-6-yl)-ethyl]-3-(2-fluoro-phenyl)-N-methyl-acrylamide], in data set [1] (triplicate, read-out: membrane permeability (Papp)), the Papp at 150 min was determined as 25 ± 3 nm/s. Further, the efflux ratio at 150 min in data set [1] (read-out: efflux ratio, Papp (B to A) / Papp (A to B)) was found to be 0.7. The “substrate for the efflux transporter P-gp” value in data set [2] is “not identified as a substrate”. The remaining activity at 10 µM turned out to be 69.3 ± 5.6% at KV7.2-L299V, 101 ± 10.3% at KV7.4-L305V and 90.4 ± 4.1% at KV7.2-L275V.
